Test results reported in ChEMBL document CHEMBL4837240 (J Med Chem, 2021).
The source made the active and inactive calls. No cut-off for these calls is given here.

How the values were obtained:
MDA-MB-231 [1] = test: Antimigratory activity against human MDA-MB-231 cells assessed as suppression of migration measured after 24 hrs by Wound healing assay; format: functional, cell-based
[2] = Toxicity in BALB/c mouse xenografted with MDA-MB-231 cells assessed as LDH level in blood at 300 mg/kg, po; format: organism-based; conditions: in vivo
[3] = Toxicity in BALB/c mouse xenografted with MDA-MB-231 cells assessed as AST level in blood at 300 mg/kg, po; format: organism-based; conditions: in vivo
[4] = Toxicity in BALB/c mouse xenografted with MDA-MB-231 cells assessed as ALT level in blood at 300 mg/kg, po; format: organism-based; conditions: in vivo
MDA-MB-436 [5] = test: Induction of apoptosis in human MDA-MB-436 cells assessed as downregulation of Bcl2 expression up to 10 uM incubated for 24 hrs by Western blotting analysis; format: functional, cell-based; conditions: dose microM <=10, time 24.0 hrs
MDA-MB-231 [6] = test: Induction of apoptosis in human MDA-MB-231 cells assessed as increase in apoptotic cells incubated for 24 hrs by Hoechst 33258 staining under a fluorescence microscopy; format: functional, cell-based
MDA-MB-436 [7] = test: Anticancer activity against human MDA-MB-436 cells assessed as cell viability incubated for 48 hrs by MTT assay; conditions: MDA-MB-436, 48 h
[8] = biological target: Maternal embryonic leucine zipper kinase (Homo sapiens, UniProt Q14680); test: Inhibition of human MELK assessed as residual kinase activity at 1 uM relative to control
Chain of Maternal embryonic leucine zipper kinase (Q14680 whole entry, looked up): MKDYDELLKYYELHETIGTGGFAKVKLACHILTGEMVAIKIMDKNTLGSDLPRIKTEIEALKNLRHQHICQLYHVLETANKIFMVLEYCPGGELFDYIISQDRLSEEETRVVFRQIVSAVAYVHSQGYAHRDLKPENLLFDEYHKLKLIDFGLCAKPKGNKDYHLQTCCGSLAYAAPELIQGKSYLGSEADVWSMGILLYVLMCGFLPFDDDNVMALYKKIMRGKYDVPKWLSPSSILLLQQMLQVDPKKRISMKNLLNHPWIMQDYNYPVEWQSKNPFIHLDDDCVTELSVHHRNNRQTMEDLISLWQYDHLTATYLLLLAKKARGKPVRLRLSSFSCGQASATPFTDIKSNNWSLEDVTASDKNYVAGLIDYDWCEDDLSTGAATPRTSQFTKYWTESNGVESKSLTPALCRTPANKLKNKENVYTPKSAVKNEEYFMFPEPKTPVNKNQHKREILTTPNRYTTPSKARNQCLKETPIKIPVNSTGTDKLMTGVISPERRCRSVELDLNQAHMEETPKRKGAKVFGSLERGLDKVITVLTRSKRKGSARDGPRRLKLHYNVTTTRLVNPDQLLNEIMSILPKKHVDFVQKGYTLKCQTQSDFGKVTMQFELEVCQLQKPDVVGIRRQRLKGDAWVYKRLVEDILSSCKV

[9] = biological target: Vascular endothelial growth factor receptor 1 (Homo sapiens, UniProt P17948); test: Inhibition of human FLT1/VEGFR1 assessed as residual kinase activity at 1 uM relative to control
Chain of Vascular endothelial growth factor receptor 1 (P17948 whole entry): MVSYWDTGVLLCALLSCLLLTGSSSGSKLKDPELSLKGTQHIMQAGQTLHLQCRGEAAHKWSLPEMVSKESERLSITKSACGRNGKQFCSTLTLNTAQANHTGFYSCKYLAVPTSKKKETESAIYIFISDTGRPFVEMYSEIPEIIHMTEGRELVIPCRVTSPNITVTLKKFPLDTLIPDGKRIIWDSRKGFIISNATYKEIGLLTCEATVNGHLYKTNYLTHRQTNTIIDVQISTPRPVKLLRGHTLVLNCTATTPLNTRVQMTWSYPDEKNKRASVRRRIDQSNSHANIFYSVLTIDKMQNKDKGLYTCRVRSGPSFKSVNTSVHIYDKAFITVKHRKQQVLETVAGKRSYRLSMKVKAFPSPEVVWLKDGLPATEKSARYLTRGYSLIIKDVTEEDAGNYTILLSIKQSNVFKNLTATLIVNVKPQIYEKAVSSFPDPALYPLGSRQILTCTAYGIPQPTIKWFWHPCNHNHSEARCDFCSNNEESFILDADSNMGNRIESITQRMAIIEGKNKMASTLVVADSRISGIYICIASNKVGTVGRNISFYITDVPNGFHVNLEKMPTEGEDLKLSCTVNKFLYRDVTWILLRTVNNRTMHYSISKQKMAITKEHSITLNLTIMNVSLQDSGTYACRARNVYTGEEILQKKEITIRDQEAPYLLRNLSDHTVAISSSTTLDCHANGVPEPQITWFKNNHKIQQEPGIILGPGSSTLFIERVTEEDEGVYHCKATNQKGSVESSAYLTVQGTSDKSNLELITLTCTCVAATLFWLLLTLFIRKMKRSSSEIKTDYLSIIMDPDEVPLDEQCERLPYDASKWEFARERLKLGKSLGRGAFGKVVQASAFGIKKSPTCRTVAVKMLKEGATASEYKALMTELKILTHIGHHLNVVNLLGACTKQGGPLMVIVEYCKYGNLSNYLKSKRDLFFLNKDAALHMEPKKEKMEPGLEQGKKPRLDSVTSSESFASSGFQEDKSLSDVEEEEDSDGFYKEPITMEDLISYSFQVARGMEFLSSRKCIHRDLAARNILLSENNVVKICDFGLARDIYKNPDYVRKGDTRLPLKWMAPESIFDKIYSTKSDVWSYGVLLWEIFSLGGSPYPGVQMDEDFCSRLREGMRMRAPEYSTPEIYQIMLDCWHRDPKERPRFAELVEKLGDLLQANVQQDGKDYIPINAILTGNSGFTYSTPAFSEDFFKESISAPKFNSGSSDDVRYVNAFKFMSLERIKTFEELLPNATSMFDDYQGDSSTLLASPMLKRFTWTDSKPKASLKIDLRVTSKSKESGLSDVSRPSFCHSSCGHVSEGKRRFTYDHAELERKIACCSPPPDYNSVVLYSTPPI

[10] = biological target: T1, Vascular endothelial growth factor receptor 3 (Homo sapiens, UniProt P35916); test: Inhibition of human FLT4/VEGFR3
T1 sequence (P35916 whole entry): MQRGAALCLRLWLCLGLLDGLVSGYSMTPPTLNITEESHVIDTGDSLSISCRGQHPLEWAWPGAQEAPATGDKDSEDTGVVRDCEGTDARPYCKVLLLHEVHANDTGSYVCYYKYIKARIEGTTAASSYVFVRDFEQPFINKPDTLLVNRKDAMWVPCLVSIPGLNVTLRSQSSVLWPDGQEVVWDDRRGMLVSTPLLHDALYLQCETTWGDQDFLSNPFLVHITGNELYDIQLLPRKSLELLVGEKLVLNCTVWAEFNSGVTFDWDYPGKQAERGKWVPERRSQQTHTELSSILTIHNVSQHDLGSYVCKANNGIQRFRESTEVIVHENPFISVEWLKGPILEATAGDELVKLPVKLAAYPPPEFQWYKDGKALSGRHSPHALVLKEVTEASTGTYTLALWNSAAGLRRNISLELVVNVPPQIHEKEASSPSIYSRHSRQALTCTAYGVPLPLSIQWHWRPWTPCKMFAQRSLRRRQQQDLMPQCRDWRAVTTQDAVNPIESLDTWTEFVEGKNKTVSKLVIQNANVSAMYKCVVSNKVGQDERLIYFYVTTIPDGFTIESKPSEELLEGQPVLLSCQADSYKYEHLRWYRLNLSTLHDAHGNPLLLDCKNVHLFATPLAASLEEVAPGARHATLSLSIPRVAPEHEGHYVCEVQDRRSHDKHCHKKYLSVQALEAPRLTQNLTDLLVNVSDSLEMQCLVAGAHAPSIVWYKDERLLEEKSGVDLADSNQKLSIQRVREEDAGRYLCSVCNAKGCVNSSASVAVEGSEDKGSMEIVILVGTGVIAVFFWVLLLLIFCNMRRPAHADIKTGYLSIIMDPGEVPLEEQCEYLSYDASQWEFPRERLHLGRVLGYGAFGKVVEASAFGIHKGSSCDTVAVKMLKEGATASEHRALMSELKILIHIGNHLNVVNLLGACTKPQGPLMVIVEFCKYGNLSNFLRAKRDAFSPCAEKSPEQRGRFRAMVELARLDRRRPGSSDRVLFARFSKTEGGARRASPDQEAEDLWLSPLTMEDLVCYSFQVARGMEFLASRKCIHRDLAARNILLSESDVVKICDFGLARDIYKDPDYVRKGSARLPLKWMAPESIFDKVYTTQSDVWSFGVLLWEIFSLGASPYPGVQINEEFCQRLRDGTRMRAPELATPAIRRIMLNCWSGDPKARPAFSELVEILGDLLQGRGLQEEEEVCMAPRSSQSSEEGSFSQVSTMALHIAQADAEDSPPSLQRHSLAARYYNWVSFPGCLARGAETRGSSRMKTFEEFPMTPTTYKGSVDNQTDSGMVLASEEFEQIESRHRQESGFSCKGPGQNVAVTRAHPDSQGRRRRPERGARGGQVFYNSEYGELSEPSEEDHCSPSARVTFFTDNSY

Misshapen-like kinase 1 = Misshapen-like kinase 1 (Homo sapiens, UniProt Q8N4C8); test: Inhibition of human MINK
Chain of Misshapen-like kinase 1 (Q8N4C8 whole entry): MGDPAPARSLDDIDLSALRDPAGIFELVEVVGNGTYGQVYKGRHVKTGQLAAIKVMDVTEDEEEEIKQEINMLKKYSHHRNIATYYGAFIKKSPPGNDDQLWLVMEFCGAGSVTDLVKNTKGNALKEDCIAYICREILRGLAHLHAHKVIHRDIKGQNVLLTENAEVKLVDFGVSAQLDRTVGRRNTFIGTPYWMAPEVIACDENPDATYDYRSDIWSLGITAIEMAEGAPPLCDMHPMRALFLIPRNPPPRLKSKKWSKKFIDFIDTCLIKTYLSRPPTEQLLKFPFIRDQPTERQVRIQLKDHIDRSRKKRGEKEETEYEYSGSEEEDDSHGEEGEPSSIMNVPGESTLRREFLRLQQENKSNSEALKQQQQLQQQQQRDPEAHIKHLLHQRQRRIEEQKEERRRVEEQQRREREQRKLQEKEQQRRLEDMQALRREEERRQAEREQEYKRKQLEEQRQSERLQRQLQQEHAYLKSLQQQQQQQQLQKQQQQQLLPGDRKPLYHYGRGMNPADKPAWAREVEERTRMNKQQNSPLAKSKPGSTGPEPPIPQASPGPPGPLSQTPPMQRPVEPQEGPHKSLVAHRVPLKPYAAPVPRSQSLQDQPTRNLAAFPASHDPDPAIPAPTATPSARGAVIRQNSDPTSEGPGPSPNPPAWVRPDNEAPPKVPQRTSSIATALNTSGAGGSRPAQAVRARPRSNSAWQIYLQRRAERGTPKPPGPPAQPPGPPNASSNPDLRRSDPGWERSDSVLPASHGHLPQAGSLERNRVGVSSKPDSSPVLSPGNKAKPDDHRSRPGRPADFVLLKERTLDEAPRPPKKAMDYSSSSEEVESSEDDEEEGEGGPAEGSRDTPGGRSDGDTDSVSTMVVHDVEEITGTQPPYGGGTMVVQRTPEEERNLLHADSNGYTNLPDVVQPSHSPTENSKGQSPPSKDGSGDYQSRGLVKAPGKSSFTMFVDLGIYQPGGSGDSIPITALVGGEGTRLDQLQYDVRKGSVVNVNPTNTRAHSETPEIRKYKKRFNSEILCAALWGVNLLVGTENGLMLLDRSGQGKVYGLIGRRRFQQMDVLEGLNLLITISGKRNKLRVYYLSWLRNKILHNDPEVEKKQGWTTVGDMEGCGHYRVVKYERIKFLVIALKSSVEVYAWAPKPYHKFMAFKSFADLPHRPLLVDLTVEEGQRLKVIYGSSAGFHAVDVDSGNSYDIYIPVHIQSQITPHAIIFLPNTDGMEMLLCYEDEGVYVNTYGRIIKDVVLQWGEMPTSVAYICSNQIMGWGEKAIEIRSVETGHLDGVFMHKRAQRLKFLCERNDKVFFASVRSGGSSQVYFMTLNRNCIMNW

[11] = Antiproliferative activity against VEGF-C-induced human dermal lymphatic endothelial cells assessed as cell viability incubated for 48 hrs by CCK-8 assay; format: functional, tissue-based; conditions: HDLEC
[12] = Antiproliferative activity against VEGF-D-induced human dermal lymphatic endothelial cells assessed as cell viability incubated for 48 hrs by CCK-8 assay; format: functional, tissue-based; conditions: HDLEC
HDLEC [13] = test: Anti-lymphangiogenic activity against human dermal lymphatic endothelial cells assessed as inhibition of VEGF-C-mediated tube formation at 100 nM incubated for 12 hrs by inverted microscopy; format: functional, tissue-based
HDLEC [14] = test: Inhibition of cell migration in VEGF-C-induced human dermal lymphatic endothelial cells assessed as cell migration at 100 nM incubated for 24 hrs by inverted microscopy based by scratch wound healing assay; format: functional, tissue-based
HDLEC [15] = test: Downregulation of MMP2 protein expression in human dermal lymphatic endothelial cells incubated for 24 hrs by Western blot analysis; format: functional, tissue-based
MDA-MB-436 [16] = test: Inhibition of colony formation in human MDA-MB-436 cells at 2.5 uM incubated for 24 hrs by clonogenic assay; format: functional
MDA-MB-436 [17] = test: Induction of apoptosis in human MDA-MB-436 cells assessed as upregulation of Bax expression up to 10 uM incubated for 24 hrs by Western blotting analysis; format: functional, cell-based; conditions: dose microM <=10, time 24.0 hrs
MDA-MB-436 [18] = test: Induction of apoptosis in human MDA-MB-436 cells assessed as upregulation of caspase 3 up to 10 uM incubated for 24 hrs by Western blotting analysis; format: functional, cell-based; conditions: dose microM <=10, time 24.0 hrs
MDA-MB-436 [19] = test: Antimigratory activity against human MDA-MB-436 cells assessed as suppression of migration measured after 24 hrs by Wound healing assay; format: functional, cell-based
MDA-MB-231 [20] = test: Upregulation of E-cadherin protein expression in human MDA-MB-231 cells up to 10 uM incubated for 24 hrs by Western blot analysis; format: functional, cell-based; conditions: dose microM <=10, time 24.0 hrs
MDA-MB-436 [21] = test: Upregulation of E-cadherin protein expression in human MDA-MB-436 cells up to 10 uM incubated for 24 hrs by Western blot analysis; format: functional, cell-based; conditions: dose microM <=10, time 24.0 hrs
[22] = biological target: T1, Vascular endothelial growth factor receptor 3; test: Inhibition of VEGFR3 in human MDA-MB-231 cells assessed as inhibition of STAT5 phosphorylation at 2.5 uM incubated for 24 hrs by Western blot analysis; format: cell-based
[23] = biological target: T1, Vascular endothelial growth factor receptor 3; test: Inhibition of VEGFR3 in human MDA-MB-231 cells assessed as inhibition of AKT phosphorylation at 2.5 uM incubated for 24 hrs by Western blot analysis; format: cell-based
[24] = biological target: T1, Vascular endothelial growth factor receptor 3; test: Inhibition of VEGFR3 in human MDA-MB-231 cells assessed as inhibition of ERK1/2 phosphorylation at 2.5 uM incubated for 24 hrs by Western blot analysis; format: cell-based
[25] = biological target: T1, Vascular endothelial growth factor receptor 3; test: Inhibition of VEGFR3 phosphorylation in human MDA-MB-436 cells at 2.5 uM incubated for 24 hrs by Western blot analysis; format: cell-based
[26] = biological target: T1, Vascular endothelial growth factor receptor 3; test: Inhibition of VEGFR3 in human MDA-MB-436 cells assessed as inhibition of AKT phosphorylation at 2.5 uM incubated for 24 hrs by Western blot analysis; format: cell-based
[27] = biological target: T1, Vascular endothelial growth factor receptor 3; test: Inhibition of VEGFR3 in human MDA-MB-436 cells assessed as inhibition of ERK1/2 phosphorylation at 2.5 uM incubated for 24 hrs by Western blot analysis; format: cell-based
[28] = Cmax in Sprague-Dawley rat at 10 mg/kg, po by LC-MS analysis; format: ADME, organism-based; set-up: route oral, dose 10 mg/kg; conditions: in vivo
[29] = AUC (0 to t) in Sprague-Dawley rat at 10 mg/kg, po by LC-MS analysis; format: ADME, organism-based; set-up: dose 10 mg/kg; conditions: in vivo
[30] = Apparent volume of distribution in Sprague-Dawley rat at 1 mg/kg, iv by LC-MS analysis; format: ADME, organism-based; conditions: in vivo, read-out: Vz
[31] = Clearance in Sprague-Dawley rat at 1 mg/kg, iv by LC-MS analysis; format: ADME, organism-based; conditions: in vivo
[32] = Bioavailability in Sprague-Dawley rat at 1 mg/kg, iv by LC-MS analysis; format: ADME, organism-based; conditions: in vivo
[33] = Toxicity in BALB/c mouse xenografted with MDA-MB-231 cells assessed as effect on body weight at 50 mg/kg, po; format: organism-based; conditions: in vivo
[34] = Toxicity in BALB/c mouse xenografted with MDA-MB-231 cells assessed as creatinine level in blood at 300 mg/kg, po; format: organism-based; conditions: in vivo
[35] = Toxicity in BALB/c mouse xenografted with MDA-MB-231 cells assessed as change in heart at 300 mg/kg, po by hematoxylin and eosin staining based analysis; format: organism-based; conditions: in vivo
[36] = Toxicity in BALB/c mouse xenografted with MDA-MB-231 cells assessed as change in liver at 300 mg/kg, po by hematoxylin and eosin staining based analysis; format: organism-based; conditions: in vivo
[37] = Toxicity in BALB/c mouse xenografted with MDA-MB-231 cells assessed as change in spleen at 300 mg/kg, po by hematoxylin and eosin staining based analysis; format: organism-based; conditions: in vivo
[38] = Toxicity in BALB/c mouse xenografted with MDA-MB-231 cells assessed as change in lung at 300 mg/kg, po by hematoxylin and eosin staining based analysis; format: organism-based; conditions: in vivo
[39] = Toxicity in BALB/c mouse xenografted with MDA-MB-231 cells assessed as change in kidney at 300 mg/kg, po by hematoxylin and eosin staining based analysis; format: organism-based; conditions: in vivo
Mus musculus = test: In vivo inhibition of VEGFR2 phosphorylation in BALB/c mouse xenografted with MDA-MB-231 cells at 25 mg/kg, po by immunohistochemistry analysis; format: functional, organism-based

With `CN1CCN(c2ccc(-c3cc4c(N5CCN(C(=O)Nc6ccc(Cl)c(C(F)(F)F)c6)CC5)ncnc4s3)cc2)CC1` the Activity (MDA-MB-231 [1]) was “Active”, the Activity [2] was “Non-Toxic” and the Activity [3] was “Non-Toxic”. For the same compound, the Activity [4] was “Non-Toxic”, the Activity (MDA-MB-436 [5]) was “Active” and the Activity (MDA-MB-231 [6]) was “Dose-Dependent Effect”. It also gave an IC50 (MDA-MB-436 [7]) of 3500 nM, an Activity [8] of 17% and an Activity [9] of 97%. It also gave an IC50 [10] of 110 nM, an IC50 (Misshapen-like kinase 1) of 335 nM and an IC50 [11] of 250 nM. For the same compound, the IC50 [12] was 680 nM, the Activity (HDLEC [13]) was “Active” and the Activity (HDLEC [14]) was “Active”. The Activity (HDLEC [15]) was “Active”, the inhibition at 2.5 µM (MDA-MB-436 [16]) was 100% and the Activity (MDA-MB-436 [17]) was “Active”. For the same compound, the Activity (MDA-MB-436 [18]) was “Active”, the Activity (MDA-MB-436 [19]) was “Active” and the Activity (MDA-MB-231 [20]) was “Active”. For the same compound, the Activity (MDA-MB-436 [21]) was “Active”, the inhibition [22] was “Active” and the inhibition [23] was “Active”. For the same compound, the inhibition [24] was “Active”, the inhibition [25] was “Active” and the inhibition [26] was “Active”. The inhibition [27] was “Active”, the Cmax [28] was 420 ng/mL and the AUC(0-t) [29] was 9220 ng·h/mL. For the same compound, the Vd [30] was 5.4 L/kg, the clearance [31] was 4.8 mL/min/kg and the bioavailability [32] was 30.9%. The Activity [33] was “Non-Toxic”, the Activity [34] was “Non-Toxic” and the Activity [35] was “Non-Toxic”. The Activity [36] was “Non-Toxic”, the Activity [37] was “Non-Toxic” and the Activity [38] was “Non-Toxic”. For the same compound, the Activity [39] was “Non-Toxic” and the Activity (Mus musculus) was “inactive”.
